# Laboratory results taken from PMC7549094 (Journal of Medicinal Chemistry, 2020).
# Read-outs that look alike come from different tables or passages of the source.
# What was measured:
# [1] = pharmacokinetics, summary across preclinical species; format: in vivo, rat, dog, cynomolgus monkey; conditions: mouse, rat, and monkey plasma; single oral dose of 1
# [2] = mouse plasma; oral administration of 1; dose-normalized AUC
# Description: In Vivo PK Studies in Mice.
# (§1) The solution was filtered using a 0.45 m syringe filter before dosing. Two male Balb/c mice were administered 1 intravenously via the lateral tail
# (§2) vein at 5 mg/kg with a dose volume of 2.0 mL/kg. 1 was also formulated in a suspension of 0.5%
# (§3) methylcellulose with 0.5% Tween 80 (0.5% MC/0.5% Tw80) in water at 2.5 mg/mL. A group of mice
# (§4) (n=3) were administered 1 orally via gavage at 20 mg/kg with a dose volume of 8.0 mL/kg.
# (§5) The mouse blood samples were centrifuged to separate plasma and the plasma samples were frozen at -
# In Vivo PK Studies in Rats.
# Two male Wistar rats were administered
# (§6) 1 intravenously via the lateral tail vein at 3 mg/kg with a dose volume of 1.0 mL/kg. 1 was also formulated
# (§7) in a suspension of 0.5% methylcellulose with 0.5% Tween 80 (0.5% MC/0.5% Tw80) in water at 2.0
# (§8) mg/mL. The second group of rats (n=3) were administered 1 orally via gavage at 10 mg/kg in suspension
# (§9) with a dose volume of 5.0 mL/kg. Six blood samples of 100 μL each were collected serially from each
# (§10) animal via the saphenous vein up to 24 hours after dosing. The rat blood samples were centrifuged to
# (§11) separate plasma and the plasma samples were frozen at -20°C until analysis.
# In Vivo PK Studies in Dogs.
# (§12) The solution was filtered using a 0.45 m syringe filter before dosing. Three male Beagle dogs were administered 1 intravenously via saphenous
# (§13) vein at 0.3 mg/kg with a dose volume of 0.1 mL/kg. 1 was also formulated in a suspension of 0.5%
# (§14) methylcellulose with 0.5% Tween 80 (0.5%MC/0.5% Tween 80) in water at 1.0 mg/mL. The second
# (§15) group of male dogs (n=2) were administered 1- orally via gavage at 1.0 mg/kg with a dose volume of 1.0
# (§16) mL/kg. Seven blood samples of 250 µL each were collected serially from each animal via the jugular vein
# (§17) The dog blood samples were centrifuged to separate plasma and the plasma
# (§18) samples were frozen at -20 °C until analysis.
# [3] = metabolite profile in monkey hepatocytes; format: in vitro ADME; conditions: 10 μM of 1 for 4 h, UV 250 nm, normalized to largest peak
# [4] = metabolite profile in human hepatocytes; format: in vitro ADME; conditions: 10 μM of 1 for 4 h, UV 250 nm, normalized to largest peak
# [5] = metabolite profile in dog hepatocytes; format: in vitro ADME; conditions: 10 μM of 1 for 4 h, UV 250 nm, normalized to largest peak
# [6] = metabolite profile in rat hepatocytes; format: in vitro ADME; conditions: 10 μM of 1 for 4 h, UV 250 nm, normalized to largest peak
# [7] = rat plasma; oral administration of 1; dose-normalized AUC
# [8] = pharmacokinetics in cynomolgus monkey; format: in vivo; conditions: monkey plasma; oral administration of 1; dose-normalized AUC
# Description: In Vivo Intravenous PK Study in Non-human Primates. The IV PK study in non-human primates was carried out at Covance research facility in Greenfield, Indiana. The research facility is accredited by AAALAC (Association for Assessment and Accreditation of Laboratory Animal Care). The male Cynomolgus monkeys were approximately 4.5 years of age and weighed 4.2 to 5.0 kg. 1 was administered […]
# 75% polyethylene glycol (PEG300) as described in the earlier section. Doses were administered once by intravenous injection via the saphenous vein at a dose of 0.3 mg/kg with a dosing volume of 0.1 ml/kg.
# Clinical observations and food consumption determinations were performed on all animals. Blood samples for PK analysis were collected from all animals via the femoral vein approximately 0.083, 0.25, […]
# In Vivo Oral PK Study in Non-human Primates. The PO PK study in non-human primates was conducted at a Novartis facility using Non-naïve male Cynomolgus monkeys weighing 3.8 to 4.0 kg. The monkeys were fasted overnight and fed 2 hours post-dose. 1 was formulated in a suspension of 0.5% […]
# gavaged with 5 mL/kg of the suspension for a total dose of 10 mg/kg. The gavage tubing was flushed with 5 mL of water to ensure the gavage tubing was cleared of the formulation. Blood samples for PK analysis were collected from all animals via the saphenous veins approximately 0.25, 0.5, 1, 2, 4, 7, 24, 48, and 72 hours post-dose.
# [9] = dog plasma; oral administration of 1; dose-normalized AUC
# Description: In Vivo PK Studies in Mice.
# as §1, §2, §3, §4, §5
# In Vivo PK Studies in Rats.
# Two male Wistar rats were administered
# as §6, §7, §8, §9, §10, §11
# In Vivo PK Studies in Dogs.
# as §12, §13, §14, §15, §16, §17, §18
# [10] = high-throughput solubility pH 6.8; format: physicochemical; conditions: high-throughput assay format, read-out: HT sol. pH 6.8
# [11] = system: intramacrophage L. donovani amastigotes; experiment: L. donovani amastigote proliferation within primary mouse macrophages; format: cell-based; conditions: Leishmania donovani, Macrophage
# [12] = biological target: T1, purified L. donovani proteasome (Leishmania donovani, UniProt A0A3Q8IIY4+A0A3S7XA80); experiment: chymotrypsin-like activity of purified L. donovani proteasome; format: biochemical; conditions: half-maximum inhibition of chymotrypsin-like activity of purified L. donovani proteasome; mean, n = 4 technical replicates
# T1 sequence (A0A3Q8IIY4 100-302): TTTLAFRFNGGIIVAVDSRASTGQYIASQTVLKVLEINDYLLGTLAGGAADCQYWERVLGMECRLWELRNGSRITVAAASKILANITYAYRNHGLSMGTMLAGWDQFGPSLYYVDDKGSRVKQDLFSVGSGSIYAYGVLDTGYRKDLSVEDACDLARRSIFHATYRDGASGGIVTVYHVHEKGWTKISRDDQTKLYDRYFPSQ
# T1 sequence (A0A3S7XA80 1-206): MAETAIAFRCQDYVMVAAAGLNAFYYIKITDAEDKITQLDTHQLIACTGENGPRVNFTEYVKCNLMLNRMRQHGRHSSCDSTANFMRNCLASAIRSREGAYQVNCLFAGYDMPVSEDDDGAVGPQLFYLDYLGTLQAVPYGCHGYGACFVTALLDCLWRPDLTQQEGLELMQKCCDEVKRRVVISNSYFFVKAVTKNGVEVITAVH
# [13] = microsomal extraction ratio, 1 h incubation in microsomes
# [14] = microsomal extraction ratio, 1 h incubation in microsomes; remark: listed apart in the source
# [15] = microsomal extraction ratio, 1 h incubation in microsomes; remark: listed apart in the source
# [16] = metabolite profile in mouse hepatocytes; format: in vitro ADME; conditions: 10 μM of 1 for 4 h, UV 250 nm, normalized to largest peak
# [17] = microsomal extraction ratio, 1 h incubation in microsomes; remark: listed apart in the source
# [18] = biological target: wild-type (PSMB4^WT) L. tarentolae proteasome (Leishmania tarentolae, UniProt A0A640KTY7+A0A640KW57); experiment: chymotrypsin-like activity of purified wild-type L. tarentolae proteasome; format: biochemical; conditions: n = 3 technical replicates
# wild-type (PSMB4^WT) L. tarentolae proteasome, sequence (A0A640KW57 100-302): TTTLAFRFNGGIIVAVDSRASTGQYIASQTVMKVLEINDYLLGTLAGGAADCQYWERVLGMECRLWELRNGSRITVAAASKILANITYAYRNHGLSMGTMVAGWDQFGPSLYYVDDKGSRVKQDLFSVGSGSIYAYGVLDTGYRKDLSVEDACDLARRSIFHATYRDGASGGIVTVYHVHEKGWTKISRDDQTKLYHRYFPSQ
# wild-type (PSMB4^WT) L. tarentolae proteasome, sequence (A0A640KTY7 1-206): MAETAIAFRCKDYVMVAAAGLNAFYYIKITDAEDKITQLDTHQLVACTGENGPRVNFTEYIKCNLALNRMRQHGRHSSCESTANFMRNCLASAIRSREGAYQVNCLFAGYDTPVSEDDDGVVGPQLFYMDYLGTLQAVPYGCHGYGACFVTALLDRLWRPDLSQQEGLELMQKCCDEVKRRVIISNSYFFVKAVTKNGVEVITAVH
compound,measurement,setting,value
Cc1cccnc1-c1cnc2nc(-c3cc(NC(=O)c4oc(CO)nc4C)ccc3F)nn2c1 [compound 8],metabolite exposure relative to 1,[1],0.2–5%
same,metabolite exposure relative to 1,[2],0.2%
same,abundance monkey,[3],+ (+ ≤25%)
same,abundance human,[4],+ (+ ≤25%)
same,abundance dog,[5],++ (++ ≤ 75%>25%)
same,abundance rat,[6],+ (+ ≤25%)
same,metabolite exposure relative to 1,[7],1.5%
same,metabolite exposure relative to 1,[8],5.1%
same,metabolite exposure relative to 1,[9],120%
Cc1nc(C)c(C(=O)Nc2ccc(F)c(-c3nc4ncc(-c5ncccc5Cl)cn4n3)c2)o1 [compound 4],solubility kinetic,[10],7 µM
same,EC50,[11],50 nM
same,IC50,[12],100 nM
Cc1nc(C)c(C(=O)Nc2ccc(F)c(-c3nc4ncc(-c5ccccn5)cn4n3)c2)o1 [compound 2],ER rat,[13],< 0.27
same,ER dog,[14],0.46
same,ER human,[15],0.3
Cc1nc(C)c(C(=O)Nc2ccc(F)c(-c3nc4ncc(-c5ncccc5CO)cn4n3)c2)o1 [compound 6],metabolite exposure relative to 1,[1],less than 10%
same,metabolite exposure relative to 1,[2],1.5%
same,abundance monkey,[3],+ (+ ≤25%)
same,abundance human,[4],+ (+ ≤25%)
same,abundance dog,[5],+ (+ ≤25%)
same,abundance rat,[6],+ (+ ≤25%)
same,metabolite exposure relative to 1,[7],1.5%
same,metabolite exposure relative to 1,[8],1.7%
same,EC50,[11],500 nM
same,IC50,[12],70 nM
same,abundance mouse,[16],+ (+ ≤25%)
COc1cccnc1-c1cnc2nc(-c3cc(NC(=O)c4oc(C)nc4C)ccc3F)nn2c1 [compound 5],ER mouse,[17],0.4
same,solubility kinetic,[10],7 µM
same,ER dog,[14],0.56
same,ER human,[15],< 0.21
same,EC50,[11],70 nM
Cc1nc(CO)c(C(=O)Nc2ccc(F)c(-c3nc4ncc(-c5ncccc5C)cn4n3)c2)o1 [compound 7],metabolite exposure relative to 1,[1],5–17%
same,metabolite exposure relative to 1,[2],4.5%
same,abundance monkey,[3],+ (+ ≤25%)
same,abundance human,[4],+ (+ ≤25%)
same,abundance dog,[5],+ (+ ≤25%)
same,abundance rat,[6],+ (+ ≤25%)
same,metabolite exposure relative to 1,[7],17%
same,metabolite exposure relative to 1,[8],11%
same,abundance mouse,[16],+ (+ ≤25%)
"CC(C)C[C@H](NC(=O)[C@H](Cc1ccccc1)NC(=O)c1cnccn1)B(O)O [Bortezomib, bortezomib, reference compound]",IC50,[18],4 nM
Cc1nc(C)c(C(=O)Nc2ccc(F)c(-c3nc4ncc(-c5ncccc5C(F)F)cn4n3)c2)o1 [compound 3],ER rat,[13],< 0.18
same,ER mouse,[17],0.51
same,solubility kinetic,[10],21 µM
same,ER dog,[14],0.57
same,ER human,[15],0.55
same,EC50,[11],110 nM
same,IC50,[12],60 nM
